This is an account of results in patent publication US9688669B2, “Oxazolidinones as modulators of mGluR5” (BRISTOL-MYERS SQUIBB COMPANY, priority 2013, dated 2017).

pEC50: −log10 of the molar value.

In the assay the target is human mGluR5A (Homo sapiens (Human), UniProt P41594). Kind of assay: mGluR5 FLIPR Assay. Format: cell-based. To be noted: positive modulator activity, HEK293 (ZF) cells with human mGluR5A and rat GLAST, Ca++ response to ~EC10 l-glutamate. The method, then:
HEK293 (ZF) cells stably transfected with human mGluR5A (pIRES neo) and the rat glutamate-aspartate transporter (GLAST; pIRES puro) are grown in a monolayer culture at 37° C. in 5% CO2 and fed with Minimum Essential Medium (MEM) supplemented with 10% dialysed fetal bovine serum. […] Plates are incubated in dye at 37° C. in 5% CO2 for 60 minutes prior to delivery of test compounds in assay buffer. Test compounds are incubated with cells in the presence of dye for 10 minutes prior to being read on the FLIPR platform (Molecular Devices). A Ca^++ signal is induced in the assay plates via the delivery of an ˜EC10 concentration of the endogenous agonist 1-glutamate; images are acquired at 1 Hz for 100 seconds post-delivery of agonist stimulus. Positive modulator activity (i.e. the ability of test compounds to increase the Ca^++ response to a sub-maximal concentration of agonist) is normalized to a saturating concentration of a known mGluR5 PAM run in each assay plate. An EC50 concentration of test compounds is derived from 4-parameter logistic curve fits of transformed fluoresence data via proprietary software suite.

By pEC50 is commonly meant the EC50 on a negative log10 scale, so that one unit is a factor of ten. Read a low pEC50 as a high EC50.

Chain of human mGluR5A (P41594 other isoform, or with tags, fused parts or gaps): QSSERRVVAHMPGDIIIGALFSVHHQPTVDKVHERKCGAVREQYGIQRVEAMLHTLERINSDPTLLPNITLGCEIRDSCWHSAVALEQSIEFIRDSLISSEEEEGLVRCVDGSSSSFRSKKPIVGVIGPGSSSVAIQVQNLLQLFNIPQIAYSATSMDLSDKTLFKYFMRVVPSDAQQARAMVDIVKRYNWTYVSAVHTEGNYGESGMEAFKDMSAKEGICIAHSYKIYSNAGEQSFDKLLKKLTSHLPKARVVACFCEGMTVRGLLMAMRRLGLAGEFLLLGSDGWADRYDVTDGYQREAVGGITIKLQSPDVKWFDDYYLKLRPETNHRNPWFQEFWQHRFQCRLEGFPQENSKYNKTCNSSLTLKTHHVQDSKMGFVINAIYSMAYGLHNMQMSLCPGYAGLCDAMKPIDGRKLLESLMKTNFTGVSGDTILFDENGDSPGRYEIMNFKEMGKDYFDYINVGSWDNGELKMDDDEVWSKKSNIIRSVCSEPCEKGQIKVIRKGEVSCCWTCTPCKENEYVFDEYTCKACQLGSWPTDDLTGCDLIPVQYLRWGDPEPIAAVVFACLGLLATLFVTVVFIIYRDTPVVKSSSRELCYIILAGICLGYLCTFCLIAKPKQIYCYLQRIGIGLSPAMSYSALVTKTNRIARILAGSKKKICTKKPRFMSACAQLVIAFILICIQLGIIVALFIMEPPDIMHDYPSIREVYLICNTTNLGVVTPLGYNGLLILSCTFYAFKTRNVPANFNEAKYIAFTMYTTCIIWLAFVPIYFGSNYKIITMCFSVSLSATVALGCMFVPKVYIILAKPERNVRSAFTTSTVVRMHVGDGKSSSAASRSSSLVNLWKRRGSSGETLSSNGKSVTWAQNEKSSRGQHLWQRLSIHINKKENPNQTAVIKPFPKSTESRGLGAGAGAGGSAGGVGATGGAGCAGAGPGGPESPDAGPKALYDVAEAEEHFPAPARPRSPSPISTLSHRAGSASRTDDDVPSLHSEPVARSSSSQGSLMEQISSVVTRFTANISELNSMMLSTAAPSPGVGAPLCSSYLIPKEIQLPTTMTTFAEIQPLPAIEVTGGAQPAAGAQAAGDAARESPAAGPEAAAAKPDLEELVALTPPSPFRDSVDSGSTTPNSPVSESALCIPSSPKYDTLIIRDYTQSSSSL

Compound `O=C1N[C@H](c2cncc(C#CCC3CCOC3)c2)[C@@H](c2cccc(F)c2)O1` (some centres unmarked) [Example 65] gave a pEC50 of 7.83. For `O=C1N[C@H](c2cncc(C#CCC3CCOC3)c2)[C@@H](c2cccc(F)c2)O1` (some centres unmarked) [Example 66] the value was 7.82; for `O=C1N[C@H](c2cncc(C#CCCOCC(F)(F)F)c2)[C@@H](c2cccc(F)c2)O1` [Example 67], 7.05. Consider `O=C1N[C@H](c2cncc(C#CCC3COC3)c2)[C@@H](c2cccc(F)c2)O1` [Example 68], for which the pEC50 was 6.03. In the case of `O=C1N[C@H](c2cncc(C#CCC3CCO3)c2)[C@@H](c2cccc(F)c2)O1` (some centres unmarked) [Example 69], the pEC50 is under 5.79. For `O=C1N[C@H](c2cncc(C#CCN3CC(F)(F)C3)c2)[C@@H](c2cccc(F)c2)O1` [Example 70, (4R,5R)-4-(5-(3-(3,3-Difluoroazetidin-1-yl)prop-1-yn-1-yl)pyridin-3-yl)-5-(3-fluorophenyl)oxazolidin-2-one] the value was 7.53. `Cc1cn(CC#Cc2cncc([C@H]3NC(=O)O[C@@H]3c3cccc(F)c3)c2)cn1` [Example 71, (4R,5R)-5-(3-Fluorophenyl)-4-(5-(3-(4-methyl-M-imidazol-1-yl)prop-1-yn-1-yl)pyridin-3-yl)oxazolidin-2-one] had a pEC50 of under 5.49. With `O=C1N[C@H](c2cncc(C#CC(O)CC3CC3)c2)[C@@H](c2cccc(F)c2)O1` (stereo partly drawn) [Example 72, (4R,5R)-4-(5-(4-Cyclopropyl-3-hydroxybut-1-yn-1-yl)pyridin-3-yl)-5-(3-fluorophenyl)oxazolidin-2-one], the pEC50 was 7.78. In the case of `CC1CC1C(O)C#Cc1cncc([C@H]2NC(=O)O[C@@H]2c2cccc(F)c2)c1` (some centres unmarked) [Example 75], the pEC50 was 6.89. For `O=C1N[C@H](c2cncc(C#CC(O)C3CC3(F)F)c2)[C@@H](c2cccc(F)c2)O1` (some centres unmarked) [Example 76] the value was 6.48. For `CC1(C)CC1C(O)C#Cc1cncc([C@H]2NC(=O)O[C@@H]2c2cccc(F)c2)c1` (some centres unmarked) [Example 77] the value was under 5.79. Under `CN(C)CC#Cc1cncc([C@H]2NC(=O)O[C@@H]2c2cccc(F)c2)c1` [Example 79, (4R,5R)-4-(5-(3-(Dimethylamino)prop-1-yn-1-yl)pyridin-3-yl)-5-(3-fluorophenyl)oxazolidin-2-one] stands 6.33; under `COc1cccc([C@H]2OC(=O)N[C@@H]2c2cccc(C#CC3CC3)c2)c1` [Example 80, (4R,5R)-4-(3-(Cyclopropylethynyl)phenyl)-5-(3-methoxyphenyl)oxazolidin-2-one], under 5.52; under `O=C1N[C@H](c2cncc(C#CC3CCCCC3)c2)[C@@H](c2cc(F)ccc2F)O1` [Example 81, (4R,5R)-4-(5-(Cyclohexylethynyl)pyridin-3-yl)-5-(2,5-difluorophenyl)oxazolidin-2-one], 6.45. In turn, `O=C1N[C@H](c2cncc(C#CC34CCC(CC3)CC4)c2)[C@@H](c2cc(F)ccc2F)O1` [Example 82, (4R,5R)-4-(5-(Bicyclo[2.2.2]octan-1-ylethynyl)pyridin-3-yl)-5-(2,5-difluorophenyl)oxazolidin-2-one] showed a pEC50 of 5.88.

For `O=C1N[C@H](c2cncc(C#CC34CCC(CC3)CC4)c2)[C@@H](c2cccc(F)c2)O1` [Example 84, (4R,5R)-4-(5-(Bicyclo[2.2.2]octan-1-ylethynyl)pyridin-3-yl)-5-(3-fluorophenyl)oxazolidin-2-one], the pEC50 is 5.44. As to `O=C1N[C@H](c2cncc(C#CC3(O)CCCCC3)c2)[C@@H](c2cccc(F)c2)O1` [Example 85, (4R,5R)-5-(3-Fluorophenyl)-4-(5-((1-hydroxycyclohexyl)ethynyl)pyridin-3-yl)oxazolidin-2-one], the pEC50 was 5.98. `CC1(C#Cc2cncc([C@H]3NC(=O)O[C@@H]3c3cccc(F)c3)c2)CCCCC1` [Example 87, (4R,5R)-5-(3-Fluorophenyl)-4-(5-((1-methylcyclohexyl)ethynyl)pyridin-3-yl)oxazolidin-2-one] showed a pEC50 of under 4.97. Under `O=C1N[C@H](c2cncc(C#CC34CCCCC3C4)c2)[C@@H](c2cccc(F)c2)O1` (stereo partly drawn) [Example 90, (4R,5R)-4-(5-(Bicyclo[4.1.0]heptan-1-ylethynyl)pyridin-3-yl)-5-(3-fluorophenyl)oxazolidin-2-one] stands 6.42; under `O=C1N[C@H](c2cncc(C#CC3(F)CCCCC3)c2)[C@@H](c2cccc(F)c2)O1` [Example 91, (4R,5R)-4-(5-((1-Fluorocyclohexyl)ethynyl)pyridin-3-yl)-5-(3-fluorophenyl)oxazolidin-2-one], 7.02; under `O=C1N[C@H](c2cncc(C#CC3CCC(F)(F)CC3)c2)[C@@H](c2cccc(F)c2)O1` [Example 92, (4R,5R)-4-(5-((4,4-Difluorocyclohexyl)ethynyl)pyridin-3-yl)-5-(3-fluorophenyl)oxazolidin-2-one], 7.29.

Compound `O=C1N[C@H](c2cncc(C#CC3CCOCC3)c2)[C@@H](c2cc(F)ccc2F)O1` [Example 100, (4R,5R)-5-(2,5-Difluorophenyl)-4-(5-((tetrahydro-2H-pyran-4-yl)ethynyl)pyridin-3-yl)oxazolidin-2-one] showed a pEC50 of 6.55. `N#Cc1cccc([C@H]2OC(=O)N[C@@H]2c2cncc(C#CC3CC(F)(F)C3)c2)c1` [Example 107, 3-((4R,5R)-4-(5-((3,3-Difluorocyclobutyl)ethynyl)pyridin-3-yl)-2-oxooxazolidin-5-yl)benzonitrile] gave a pEC50 of 6.55.

`O=C1N[C@H](c2cc(C#CC3CC(F)(F)C3)cnc2F)[C@@H](c2cccc(F)c2)O1` [Example 111, (4R,5R)-4-(5-((3,3-Difluorocyclobutyl)ethynyl)-2-fluoropyridin-3-yl)-5-(3-fluorophenyl)oxazolidin-2-one] had a pEC50 of 6.98. Regarding `O=C1N[C@H](c2cc(C#CC3CC(F)(F)C3)ccn2)[C@@H](c2ccccc2)O1` [Example 112, (4R,5R)-4-(4-((3,3-Difluorocyclobutyl)ethynyl)pyridin-2-yl)-5-phenyloxazolidin-2-one], the pEC50 was under 5.49. `O=C1N[C@H](c2cccc(C#CC3CC(F)(F)C3)n2)[C@@H](c2ccccc2)O1` [Example 113, (4R,5R)-4-(6-((3,3-Difluorocyclobutyl)ethynyl)pyridin-2-yl)-5-phenyloxazolidin-2-one] showed a negative logarithm of the EC50 (pEC50) of under 5.49. `O=C1N[C@H](c2ccnc(C#CC3CC(F)(F)C3)c2)[C@@H](c2ccccc2)O1` [Example 114, (4R,5R)-4-(2-((3,3-Difluorocyclobutyl)ethynyl)pyridin-4-yl)-5-phenyloxazolidin-2-one] gave a pEC50 of under 5.49.

In turn, `COc1cccc([C@H]2OC(=O)N[C@@H]2c2cccc(C#CC3CC(F)(F)C3)c2)c1` [Example 116, (4R,5R)-4-(3-((3,3-Difluorocyclobutyl)ethynyl)phenyl)-5-(3-methoxyphenyl)oxazolidin-2-one] had a pEC50 of under 5.79. For `O=C1N[C@H](c2cncc(C#CC3CC(F)(F)C3)c2)[C@@H](c2ccc(F)c(F)c2F)O1` [Example 118, (4R,5R)-4-(5-((3,3-Difluorocyclobutyl)ethynyl)pyridin-3-yl)-5-(2,3,4-trifluorophenyl)oxazolidin-2-one] the value was 7.09; for `O=C1N[C@H](c2cncc(C#CC3CC(F)(F)C3)c2)[C@@H](c2ccc(F)c(F)c2)O1` [Example 119, (4R,5R)-4-(5-((3,3-Difluorocyclobutyl)ethynyl)pyridin-3-yl)-5-(3,4-difluorophenyl)oxazolidin-2-one], 7.67; for `O=C1N[C@H](c2cncc(C#CC3CC(F)(F)C3)c2)[C@@H](c2cc(F)c(F)cc2F)O1` [Example 122, (4R,5R)-4-(5-((3,3-Difluorocyclobutyl)ethynyl)pyridin-3-yl)-5-(2,4,5-trifluorophenyl)oxazolidin-2-one], 7.23. `O=C1N[C@H](c2cncc(C#CC3CC3)c2)[C@@H](c2cccc(Cl)c2Cl)O1` [Example 125, (4R,5R)-4-(5-(Cyclopropylethynyl)pyridin-3-yl)-5-(2,3-dichlorophenyl)oxazolidin-2-one] gave a pEC50 of 6.75.
